This note sets out measurements from PubChem BioAssay (NCI).

Each structure is given as a SMILES string.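 Growth conditions: 96-well plates. Treatment: test compound, 48 hours, 5 concentrations. Analysis: linear interpolation between bracketing concentrations; unreached endpoints set to highest concentration. Here, GI50 denotes the concentration required for 50% inhibition of growth. At the TGI there is no net growth.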

One test has as its system SK-MEL-5 melanoma. In words: growth of human tumour cells (NCI), 48 h.
With `O=c1n(-c2ccccc2)c(=O)n2n1C1C=CC2C2C(C1)C2(Cl)Cl` (configuration not stated), the TGI was greater than 100 µM.
`COC1C(O)=C2C(=O)O/C(C)=C/C=C/C=C/C=C\CC(c3ccccc3)NC(=O)\C=C/C=C\C=C\C=C\[C@@]2(C)[C@@H]1O` (some centres not stated) showed a TGI of 0.199 µM.
The compound `Cc1ccc(Cn2c(C)nc3c2C(=O)c2ccccc2C3=O)cc1` returned a TGI of 19.5 µM.
Turning to `CCOC(=O)C(C)(C)Oc1ccc2c(C)c(-c3ccc(Cl)cc3)c(=O)oc2c1`, the TGI is 35 µM.
The compound `Cc1c(Cl)cccc1N1C(=O)C(Cl)=C(Cl)C1=O` returned a TGI greater than 100 µM.
The same measure, in the same setting: then `COc1ccc(NC(=O)/C(N=O)=C(/C)O)cc1`, with greater than 100 µM.
`COc1cccc(/C=N/[N-]C(=O)c2ccncc2)c1[O-].[Cu+2].[OH3+]`: the GI50 is 74.3 µM and the TGI was greater than 100 µM.
With `O=C1NC(=S)NNC12c1ccccc1-c1ccccc12`, the TGI is greater than 10 µM.
`CCc1c(OC(C)=O)c2c(NC3OC(COC(C)=O)C(OC(C)=O)C(OC(C)=O)C3OC(C)=O)nc(OC)nc2oc1=O` (configuration not stated) returned a TGI greater than 100 µM.
Compound `O=C(NC(=O)c1cn(CCNCCO)c(=O)[nH]c1=O)OCc1ccccc1` showed a TGI greater than 100 µM.
Regarding `O=[N+]([O-])c1ccc(-n2nnc(C3=NCCN3)c2-c2ccc(Cl)cc2)cc1`, the TGI is greater than 100 µM.
`CCSc1[nH]c(Nc2nc(-c3ccccc3)n(-c3ccccc3)n2)c(C(N)=O)c1C(N)=O` registered a TGI greater than 10 µM.
Still for that read-out and setting: the same measure for `O=C(c1ccc(Cl)cc1)c1cnc(Nc2ccccc2Cl)s1`: 55.2 µM; for `CCC1C2C=CC(CC2)N1S(=O)(=O)c1ccc(C)cc1` (configuration not stated): 36.1 µM.
For the compound `CCOc1ccc(N2C(=O)/C(=C/c3ccc(N(CCC#N)CCC#N)cc3)N=C2c2cc([N+](=O)[O-])ccc2Cl)cc1`, the TGI was 34.6 µM.
`COc1ccc(-c2cc(-c3ccccc3)c(C#N)c(=O)n2C2OC(CO)C(O)C(O)C2O)cc1` (configuration not stated) registered a TGI greater than 100 µM.
Same read-out and setting: the same measure for `CCOC(=O)C1(c2ccccc2)CCC(=O)CC1`: greater than 100 µM.
The compound `O=C(N/N=C1/C(=O)N(c2ccc(Cl)cc2Cl)C(=O)C(=O)C1c1nc2ccccc2o1)c1ccccc1O` (configuration not stated) displayed a TGI of 40.2 µM.
Compound `CC(=O)O[C@H]1CCC2[C@@H]3CCC4=C(O)c5nocc5C[C@]4(C)C3CC[C@@]21C` (some centres not stated) showed a TGI greater than 100 µM.
`O=C(O)CSc1n[nH]c(-c2ccccc2)n1`: the TGI was greater than 100 µM.
As to `CCCCCCC[CH2][Sn]1([CH2]CCCCCCC)[O]C(=O)c2cccnc2[S]1`, the GI50 was greater than 100 µM and the TGI is greater than 100 µM.
`O=C1[C@@H]2C3c4ccccc4C([C@@H]2C(=O)N1c1ccccc1)S3(=O)=O` yielded a TGI greater than 100 µM.
`COc1ccc(/C(=N\NC(=O)C(N)=O)C(c2ccc(OC)cc2)C2(O)C(=O)Nc3c(Cl)cccc32)cc1` (configuration not stated) displayed a TGI greater than 100 µM.
Still for that read-out and setting: the same measure for `Cc1ccc(S(=O)(=O)N/N=C/c2oc(-c3ccncc3)c(-c3ccncc3)c2[N+](=O)[O-])cc1`: greater than 100 µM.
In turn, `CCOc1ccc2c(c1)[n+]([O-])c(-c1ccccc1Cl)c(N)[n+]2[O-]` displayed a TGI greater than 100 µM.
Same read-out and setting: then `O=C1c2ccccc2C2(O)c3cc4ccccc4cc3OC12O` (configuration not stated), with 86.9 µM.

Another test concerns SN12C renal. In words: growth of human tumour cells (NCI), 48 h.
In the case of `c1ccc(SC2CCSc3ccccc3C2Sc2ccccc2)cc1` (configuration not stated), the TGI is greater than 100 µM.
On to `COC(=O)[C@]1(C)CCCC2(C)C1CC[C@H]1C=C(C)[C@H]3CCC12C3` (some centres not stated), for which the TGI was greater than 100 µM.
`O=C(Nc1cc(Cl)ccc1Cl)c1cc2cccc(Cl)c2oc1=O` returned a TGI greater than 100 µM.
Compound `O=c1n(-c2ccccc2)c(=O)n2n1C1C=CC2C2C(C1)C2(Cl)Cl` (configuration not stated) had a TGI greater than 100 µM.
For the compound `COC1C(O)=C2C(=O)O/C(C)=C/C=C/C=C/C=C\CC(c3ccccc3)NC(=O)\C=C/C=C\C=C\C=C\[C@@]2(C)[C@@H]1O` (some centres not stated), the TGI was determined as 0.538 µM.
The compound `Cc1ccc(Cn2c(C)nc3c2C(=O)c2ccccc2C3=O)cc1` yielded a TGI greater than 100 µM.
In turn, `CCOC(=O)C(C)(C)Oc1ccc2c(C)c(-c3ccc(Cl)cc3)c(=O)oc2c1` registered a TGI greater than 100 µM.
On to `Cc1c(Cl)cccc1N1C(=O)C(Cl)=C(Cl)C1=O`, for which the TGI was greater than 100 µM.
In turn, `COc1ccc(NC(=O)/C(N=O)=C(/C)O)cc1` came in with a TGI greater than 100 µM.
With `COc1cccc(/C=N/[N-]C(=O)c2ccncc2)c1[O-].[Cu+2].[OH3+]`, the GI50 was 49.7 µM and the TGI is greater than 100 µM.
As to `O=C1NC(=S)NNC12c1ccccc1-c1ccccc12`, the TGI is greater than 10 µM.
Turning to `CCc1c(OC(C)=O)c2c(NC3OC(COC(C)=O)C(OC(C)=O)C(OC(C)=O)C3OC(C)=O)nc(OC)nc2oc1=O` (configuration not stated), the TGI was greater than 100 µM.
Still for that read-out and setting: the same measure for `O=C(NC(=O)c1cn(CCNCCO)c(=O)[nH]c1=O)OCc1ccccc1`: greater than 100 µM.
In turn, `O=[N+]([O-])c1ccc(-n2nnc(C3=NCCN3)c2-c2ccc(Cl)cc2)cc1` yielded a TGI greater than 100 µM.
For `CCSc1[nH]c(Nc2nc(-c3ccccc3)n(-c3ccccc3)n2)c(C(N)=O)c1C(N)=O`, the TGI is greater than 10 µM.
In turn, `O=C(c1ccc(Cl)cc1)c1cnc(Nc2ccccc2Cl)s1` had a TGI of 52.1 µM.
On the same count and under the same terms, then `CCC1C2C=CC(CC2)N1S(=O)(=O)c1ccc(C)cc1` (configuration not stated), with 36.6 µM; and `CCOc1ccc(N2C(=O)/C(=C/c3ccc(N(CCC#N)CCC#N)cc3)N=C2c2cc([N+](=O)[O-])ccc2Cl)cc1`, with greater than 100 µM; and `COc1ccc(-c2cc(-c3ccccc3)c(C#N)c(=O)n2C2OC(CO)C(O)C(O)C2O)cc1` (configuration not stated), with greater than 100 µM.
`CCOC(=O)C1(c2ccccc2)CCC(=O)CC1` yielded a TGI greater than 100 µM.
Regarding `O=C(N/N=C1/C(=O)N(c2ccc(Cl)cc2Cl)C(=O)C(=O)C1c1nc2ccccc2o1)c1ccccc1O` (configuration not stated), the TGI was greater than 100 µM.
For the compound `CC(=O)O[C@H]1CCC2[C@@H]3CCC4=C(O)c5nocc5C[C@]4(C)C3CC[C@@]21C` (some centres not stated), the TGI is greater than 100 µM.
`O=C(O)CSc1n[nH]c(-c2ccccc2)n1` returned a TGI greater than 100 µM.
On to `CCCCCCC[CH2][Sn]1([CH2]CCCCCCC)[O]C(=O)c2cccnc2[S]1`, for which the GI50 is greater than 100 µM and the TGI was greater than 100 µM.
Take `O=C1[C@@H]2C3c4ccccc4C([C@@H]2C(=O)N1c1ccccc1)S3(=O)=O`: the TGI is greater than 100 µM.
For `COc1ccc(/C(=N\NC(=O)C(N)=O)C(c2ccc(OC)cc2)C2(O)C(=O)Nc3c(Cl)cccc32)cc1` (configuration not stated), the TGI is greater than 100 µM.
Turning to `Cc1ccc(S(=O)(=O)N/N=C/c2oc(-c3ccncc3)c(-c3ccncc3)c2[N+](=O)[O-])cc1`, the TGI is greater than 100 µM.
In turn, `CCc1cccc(C)c1NC(=O)C(=O)Cc1nc2ccccc2o1` showed a TGI greater than 100 µM.
`O=C(O)[C@H](NS(=O)(=O)c1ccc2ccccc2c1)c1ccccc1`: the TGI was greater than 100 µM.
Compound `CCOc1ccc2c(c1)[n+]([O-])c(-c1ccccc1Cl)c(N)[n+]2[O-]` had a TGI greater than 100 µM.
On the same count and under the same terms, then `O=C1c2ccccc2C2(O)c3cc4ccccc4cc3OC12O` (configuration not stated), with greater than 100 µM; and `CN(C)c1c([O-])c(=[N+](C)C)c1=O`, with greater than 100 µM.
